Measurements: patent US12428394B2, “2,4-disubstituted pyrimidine derivative, preparation method therefor and use thereof” (CHENGDU ZENITAR BIOMEDICAL TECHNOLOGY CO., LTD., priority 2019, dated 2025)
pIC50: −log10 of the molar value.

Experiments:
[1] = test system: MOLM-13 cells (FLT3-ITD-/+); assay: Inhibition of cell proliferation by MTT experiment, MOLM-13; type: cell-based, human; conditions: Homo sapiens, MOLM-13; MTT, 72 h; read-out: IC50 value on cell proliferation inhibition, MOLM-13 FLT3-ITD-/+
Excerpt: (§1) MV4-11, MOLM-13 and SET-2 were used to determine the influence of the test compound of the present invention on the activity of cancer cells. MV4-11 and MOLM-13 were human leukemia cell lines from American Type Culture Collection (ATCC), expressing FLT3 receptor and containing FLT3-ITD mutation; and SET-2 was a primary thrombocythemia cell purchased from Chengdu Bowerston Biotechnology Co., Ltd., China, continuously expressing JAK2 receptor and containing the mutation of V617F.
(§2) MV4-11, MOLM-13 and SET-2 cells were filled in a 96-well petri dish with 100 μL IMDM as the medium, containing 10% fetal bovine serum (100 mL/bottle, purchased from Grassland Lvye Bio-Engineering Materials Co., Ltd. and cryopreserved at −20° C.), and with 10,000-15,000 cells in each well. […] In each group, 3-5 replicate wells were set and incubated in 5% CO2 at 37° C. for 72 h. At the endpoint, 20 μL MTT (5 mg/mL) was added to each well, and the cells were incubated for another 1-3 h.
(§3) After the inhibition rate of each concentration of compound on cell proliferation activity was calculated, the dose-response curve and IC50 value were fitted by Graphpad prism software according to the compound treatment concentrations and corresponding inhibition rates.

[2] = molecular target: T1, FLT3 (Homo sapiens, UniProt P36888); assay: In vitro kinase activity experiment, FLT3; type: biochemical; conditions: 40 min; inhibition rate of enzyme at 500 nM; measured by Eurofins; read-out: Kinase activity @ 500 nM (%) FLT3
T1 construct: purchased Eurofins
T1 sequence (P36888 27-993): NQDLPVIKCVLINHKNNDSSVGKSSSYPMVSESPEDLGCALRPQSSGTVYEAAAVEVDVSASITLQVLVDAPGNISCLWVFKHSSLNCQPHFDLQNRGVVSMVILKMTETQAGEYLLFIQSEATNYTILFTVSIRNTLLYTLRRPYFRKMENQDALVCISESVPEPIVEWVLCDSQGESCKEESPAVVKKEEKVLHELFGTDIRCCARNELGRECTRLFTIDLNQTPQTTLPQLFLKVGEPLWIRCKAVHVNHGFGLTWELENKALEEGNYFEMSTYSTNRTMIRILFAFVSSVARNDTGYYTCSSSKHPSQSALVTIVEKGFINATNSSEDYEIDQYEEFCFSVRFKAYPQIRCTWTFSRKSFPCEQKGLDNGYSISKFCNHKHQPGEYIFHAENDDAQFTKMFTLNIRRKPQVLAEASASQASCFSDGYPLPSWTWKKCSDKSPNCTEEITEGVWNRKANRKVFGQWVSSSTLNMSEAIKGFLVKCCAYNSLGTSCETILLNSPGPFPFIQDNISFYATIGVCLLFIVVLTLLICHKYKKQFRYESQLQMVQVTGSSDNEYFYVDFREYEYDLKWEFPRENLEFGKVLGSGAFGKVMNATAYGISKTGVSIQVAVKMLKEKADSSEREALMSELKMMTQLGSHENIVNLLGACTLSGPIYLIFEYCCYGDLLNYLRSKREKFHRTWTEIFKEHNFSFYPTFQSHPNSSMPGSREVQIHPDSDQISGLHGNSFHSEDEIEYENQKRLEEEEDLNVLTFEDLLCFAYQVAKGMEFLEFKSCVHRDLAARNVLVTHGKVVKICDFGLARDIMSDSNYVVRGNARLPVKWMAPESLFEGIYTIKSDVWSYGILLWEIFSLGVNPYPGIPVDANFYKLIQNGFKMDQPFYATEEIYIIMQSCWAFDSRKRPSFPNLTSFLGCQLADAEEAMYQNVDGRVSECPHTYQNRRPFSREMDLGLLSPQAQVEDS
Protocol: (§4) Buffer solution ([…], pH 7.0, 0.2 mm EDTA, 10 mM mncl2), kinase to be tested, substrate of kinase to be tested, 10 mM magnesium acetate and γ33P-ATP solution, and compounds with different concentrations were added to a reaction tube in turn, then MgATP was added to initiate the enzyme reaction process, and incubated at room temperature for 40 min. Then, the reaction was terminated with 5 μl of […], and 10 μl of the reaction solution was titrated onto the Filtermat A membrane, washed with 75 mM phosphate solution for three times, each time for 5 min., and then washed with methanol once. Finally, the Filtermat A membrane was dried and the scintillation count was carried out.

[3] = test system: SET-2 cells (JAK2 V617F); assay: Inhibition of cell proliferation by MTT experiment, SET-2; type: cell-based; conditions: Homo sapiens, SET-2; MTT, 72 h; read-out: IC50 value on cell proliferation inhibition, SET-2 (V617F)
Excerpt: as §1, §2, §3

[4] = test system: MV4-11 cells (FLT3-ITD+/+); assay: Inhibition of cell proliferation by MTT experiment, MV4-11; type: cell-based, human; conditions: Homo sapiens, MV4-11; MTT, 72 h; read-out: IC50 value on cell proliferation inhibition, MV4-11 FLT3-ITD+/+
Excerpt: as §1, §2, §3

[5] = molecular target: T2, JAK2 (Homo sapiens, UniProt O60674); assay: In vitro kinase activity experiment, JAK2; type: biochemical; conditions: inhibition rate of enzyme at 500 nM; measured by Eurofins
T2 construct: purchased Eurofins
Protocol: as §4

T2 sequence (O60674 whole entry): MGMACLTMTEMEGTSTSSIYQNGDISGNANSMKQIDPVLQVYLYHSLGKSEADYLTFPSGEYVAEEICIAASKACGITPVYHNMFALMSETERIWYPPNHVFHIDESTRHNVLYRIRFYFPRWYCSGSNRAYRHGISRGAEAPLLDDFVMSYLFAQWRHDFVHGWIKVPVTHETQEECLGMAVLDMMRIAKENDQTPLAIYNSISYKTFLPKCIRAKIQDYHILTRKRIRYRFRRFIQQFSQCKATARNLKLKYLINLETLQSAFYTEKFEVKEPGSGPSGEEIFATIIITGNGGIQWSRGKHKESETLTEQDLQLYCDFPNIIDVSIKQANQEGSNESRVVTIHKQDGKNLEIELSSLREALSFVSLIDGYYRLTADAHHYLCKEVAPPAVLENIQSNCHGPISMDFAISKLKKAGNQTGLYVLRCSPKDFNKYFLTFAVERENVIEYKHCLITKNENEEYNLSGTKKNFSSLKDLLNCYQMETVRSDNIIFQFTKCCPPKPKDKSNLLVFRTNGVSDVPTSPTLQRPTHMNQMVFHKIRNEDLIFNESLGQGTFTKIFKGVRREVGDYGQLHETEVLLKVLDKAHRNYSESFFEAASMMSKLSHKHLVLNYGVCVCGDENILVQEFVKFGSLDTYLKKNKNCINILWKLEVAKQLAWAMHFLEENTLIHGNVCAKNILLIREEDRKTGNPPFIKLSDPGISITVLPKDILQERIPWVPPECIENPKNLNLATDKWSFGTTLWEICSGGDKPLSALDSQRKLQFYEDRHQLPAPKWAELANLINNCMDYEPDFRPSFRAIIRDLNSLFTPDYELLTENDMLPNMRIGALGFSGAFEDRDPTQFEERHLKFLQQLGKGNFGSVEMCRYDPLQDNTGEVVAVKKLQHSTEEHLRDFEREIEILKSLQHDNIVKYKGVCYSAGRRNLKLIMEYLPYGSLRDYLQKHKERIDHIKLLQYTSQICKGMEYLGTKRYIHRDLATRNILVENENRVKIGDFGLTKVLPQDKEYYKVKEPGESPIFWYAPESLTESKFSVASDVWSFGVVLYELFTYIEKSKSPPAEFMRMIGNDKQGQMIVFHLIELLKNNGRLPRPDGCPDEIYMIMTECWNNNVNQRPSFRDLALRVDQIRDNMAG

Compound	pIC50 [1]	inhibition at 0.5 µM [2]	pIC50 [3]	pIC50 [4]	Kinase activity @ 500 nM (%) JAK2 [5]
Cc1cnc(Nc2ccc(N3CCN(C(=O)CO)CC3)c(F)c2)nc1-c1cnn(C(C)C)c1 [CLJ-40, 5-methyl-N-(3-fluoro-4-(4-hydroxyacetylpiperazine-1-yl)phenyl)-4-(1-isopropyl-1H-pyrazole-4-yl) pyrimidine-2-amine]	7.00 to 8.00	94%	6.00 to 7.00	7.00 to 8.00	96%
Cc1cnc(Nc2ccc(N3CCC(N(C)C(=O)CO)CC3)c(F)c2)nc1-c1cnn(C(C)C)c1 [CLJ-41, N-(1-(2-fluoro-4-((4-(1-isopropyl-1H-pyrazol-4-yl)-5-methylpyrimidine-2-yl)amino)phenyl)piperidine-4-yl)-2-hydroxy-N-methylacetamide]	6.00 to 7.00	97%	6.00 to 7.00	7.00 to 8.00	102%
Cc1cnc(Nc2ccc(N3CCC(CO)CC3)c(F)c2)nc1-c1cnn(C(C)C)c1 [CLJ-42, 5-methyl-N-(3-fluoro-4-(4-hydroxymethylpiperidine-1-yl)phenyl)-4-(1-isopropyl-1H-pyrazole-4-yl) pyrimidine-2-amine]	6.00 to 7.00	95%	6.00 to 7.00	7.00 to 8.00	100%
Cc1cnc(Nc2ccc(N3CCC(NCCO)CC3)c(F)c2)nc1-c1cnn(C(C)C)c1 [CLJ-43, 5-methyl-N-(3-fluoro-4-(4-hydroxyethylaminopiperidine-1-yl)phenyl)-4-(1-isopropyl-1H-pyrazole-4-yl) pyrimidine-2-amine]	6.00 to 7.00	94%	6.00 to 7.00	7.00 to 8.00	95%
Cc1cnc(Nc2ccc(N3CCC(N(C)CCCO)CC3)c(F)c2)nc1-c1cnn(C(C)C)c1 [CLJ-45, 5-methyl-N-(3-fluoro-4-(4-N-hydroxypropyl-4-N-methylaminopiperidine-1-yl)phenyl)-4-(1-isopropyl-1H-pyrazole-4-yl) pyrimidine-2-amine]	7.00 to 8.00	98%	6.00 to 7.00	8.00 to 9.00	91%
Cc1cnc(Nc2ccc(N3CCC(N(C)CCCCO)CC3)c(F)c2)nc1-c1cnn(C(C)C)c1 [CLJ-46, 5-methyl-N-(3-fluoro-4-(4-N-hydroxybutyl-4-N-methylaminopiperidine-1-yl)phenyl)-4-(1-isopropyl-1H-pyrazole-4-yl) pyrimidine-2-amine]	7.00 to 8.00	98%	6.00 to 7.00	8.00 to 9.00	102%
Cc1cnc(Nc2ccc(N3CCC(N(C)CCCCCO)CC3)c(F)c2)nc1-c1cnn(C(C)C)c1 [CLJ-47, 5-methyl-N-(3-fluoro-4-(4-N-hydroxypentyl-4-N-methylaminopiperidine-1-yl)phenyl)-4-(1-isopropyl-1H-pyrazole-4-yl) pyrimidine-2-amine]	7.00 to 8.00	94%	6.00 to 7.00	8.00 to 9.00	93%
CCOCCN(C)C1CCN(c2ccc(Nc3ncc(C)c(-c4cnn(C(C)C)c4)n3)cc2F)CC1 [CLJ-48, 5-methyl-N-(3-fluoro-4-(4-N-ethoxyethyl-4-N-methylaminopiperidine-1-yl)phenyl)-4-(1-isopropyl-1H-pyrazole-4-yl) pyrimidine-2-amine]	6.00 to 7.00	96%	6.00 to 7.00	6.00 to 7.00	93%
CCCN(C)C1CCN(c2ccc(Nc3ncc(C)c(-c4cnn(C(C)C)c4)n3)cc2F)CC1 [CLJ-49, 5-methyl-N-(3-fluoro-4-(4-N-propyl-4-N-methylaminopiperidine-1-yl)phenyl)-4-(1-isopropyl-1H-pyrazole-4-yl) pyrimidine-2-amine]	6.00 to 7.00	91%	6.00 to 7.00	6.00 to 7.00	95%
CCCCN(C)C1CCN(c2ccc(Nc3ncc(C)c(-c4cnn(C(C)C)c4)n3)cc2F)CC1 [CLJ-50, 5-methyl-N-(3-fluoro-4-(4-N-butyl-4-N-methylaminopiperidine-1-yl)phenyl)-4-(1-isopropyl-1H-pyrazole-4-yl) pyrimidine-2-amine]	< 6.00	90%	< 6.00	6.00 to 7.00	89%
CCCCCCN(C)C1CCN(c2ccc(Nc3ncc(C)c(-c4cnn(C(C)C)c4)n3)cc2F)CC1 [CLJ-51, 5-methyl-N-(3-fluoro-4-(4-N-hexyl-4-N-methylaminopiperidine-1-yl)phenyl)-4-(1-isopropyl-1H-pyrazole-4-yl) pyrimidine-2-amine]	8.00 to 9.00	93%	6.00 to 7.00	6.00 to 7.00	95%
Cc1cnc(Nc2ccc(N3CCC(N(C)CC4CCCO4)CC3)c(F)c2)nc1-c1cnn(C(C)C)c1 (stereo not drawn) [CLJ-53, N-(3-fluoro-4-(4-(methyl((tetrahydrofuran-2-yl)methyl)amino)piperidine-1-yl)phenyl)-4-(1-isopropyl-1H-pyrazole-4-yl)-5-methylpyrimidine-2-amine]	7.00 to 8.00	98%	6.00 to 7.00	8.00 to 9.00	100%
Cc1cnc(Nc2ccc(N3CCC(N(C)CCN4CCOCC4)CC3)c(F)c2)nc1-c1cnn(C(C)C)c1 [CLJ-54, N-(3-fluoro-4-(4-(methyl (2-morpholinoethyl)amino)piperidine-1-yl)phenyl)-4-(1-isopropyl-1H-pyrazole-4-yl)-5-methylpyrimidine-2-amine]	< 6.00	23%	< 6.00	< 6.00	17%
Cc1cnc(Nc2ccc(N3CCC(N(C)CCN4CCCCC4)CC3)c(F)c2)nc1-c1cnn(C(C)C)c1 [CLJ-55, N-(3-fluoro-4-(4-(methyl (1-piperidylethyl)amino)piperidine-1-yl)phenyl)-4-(1-isopropyl-1H-pyrazole-4-yl)-5-methylpyrimidine-2-amine]	< 6.00	20%	< 6.00	< 6.00	25%
Cc1cnc(Nc2ccc(N3CCC(N(C)CCN4CCN(C)CC4)CC3)c(F)c2)nc1-c1cnn(C(C)C)c1 [CLJ-56, N-(3-fluoro-4-(4-(methyl (4-methyl-1-piperazine ethyl)amino)piperidine-1-yl)phenyl)-4-(1-isopropyl-1H-pyrazole-4-yl)-5-methylpyrimidine-2-amine]	7.00 to 8.00	96%	6.00 to 7.00	7.00 to 8.00	99%
